# Reference: article PMC8466300, “Investigating the Central Nervous System Disposition of Actinomycin D: Implementation and Evaluation of Cerebral Microdialysis and Brain Tissue Measurements Supported by UPLC-MS/MS Quantification” (Pharmaceutics, 2021)
# Where two headings read alike, the source gives them in different places. *1 amine or outer side, *2 acyl side, *3 side chain or, on linkers, in order; H or OH if unused. Where a SMILES comes first, the peptide text is derived from it. Bridges are numbered along the chain shown (N, C = ends). Roman numbers before positions name the chains, in order. [ ]: non-standard residue; d: D form. Actinocin(9to1) = Cc1c2oc3c(C)ccc(C(=O)[*:1])c3nc-2c(C(=O)[*:2])c(N)c1=O; NMeV = CN[C@H](C(=O)O)C(C)C; Sar = CNCC(=O)O
# Experiments:
# [1] = Non-specific binding to microdialysis equipment; assay type: physicochemical; settings: in vitro; polypropylene sampling tubes; reduced by BSA ≥1% in Ringer solution
# Protocol: In preparation of the cerebral microdialysis, we first investigated the adsorption and recovery characteristics of the microdialysis probes, tubing, and pump system, to test the validity of the microdialysis determinations. […] In order to reduce nonspecific binding, BSA supplement of the microdialysis buffer was tested in different concentrations, ranging from 0.1 to 2%. […] Therefore, 1% BSA in Ringer solution was used for all microdialysis experiments.
# [2] = female NSG mice, 0.5 mg/kg i.v. bolus, estimates; for Cmax: plasma at 0.75, 6, 22 h, UPLC-MS/MS; for t1/2 (half-life): plasma up to 22 h; for AUC (extrapolated to infinity): plasma
# Protocol: (§2) The experiments were carried out in accordance with the European regulations for care and use of laboratory animals (2010/63/EU) under the German license number G-187/18 and the internal reference number DKFZ374, approved by the responsible regional council (Regierungspräsidium Karlsruhe, Germany). Female 8-week-old NSG mice (NOD.Cg-Prkdc^scid Il2rg^tm1Wjl/SzJ-NOD-SCID gamma-mice) with a weight of approximately 25 g were used for the studies. […] Mice received analgesia (metamizole) and anesthesia with isoflurane during surgery. […] Therefore, we chose to take blood samples 0.75, 6, and 22 h after intravenous bolus injection into the tail vein for the assay’s feasibility pharmacokinetic experiment. […] Full blood samples were transferred into citrate tubes (Sarstedt, Germany) and centrifuged at 1600× g for 10 min to generate plasma samples, which were stored at −80 °C until analysis. […] For validation of the UPLC-MS/MS quantification, blank plasma from 6 naïve mice was used and blank brain tissue was obtained from 2 unexposed mice.
# (§3) For protein precipitation of plasma microsamples, an excess of ACN (50 µL) with 0.1% FA containing the IS was applied to an Impact® 96-well protein precipitation plate (Phenomenex, Torrance, CA, USA). Subsequently, 20 µL of the plasma samples were added and the plates sealed and shaken for 1 min. […] For protein depletion, samples were filtered into a 96-well collection plate (Waters, Milford, MA, USA) by applying positive pressure with a 96-well positive pressure unit (Waters, Milford, MA, USA) operated with air overpressure of 5 psi. After addition of 40 µL of water containing 0.1% FA, the collection plates were sealed, shaken, and extracts injected onto the UPLC system.
# [3] = target: P-gp/ABCB1 (Homo sapiens, UniProt P08183); settings: 0.01 µM, 10-120 min, 37 °C, 1 million cells, duplicate, cell homogenate UPLC-MS/MS; L-MDR1 vs LLC-PK1
# Protocol: (§1) To confirm the P-gp substrate characteristics of actinomycin D, we conducted growth inhibition and uptake assays in a cell line over-expressing human P-gp/ABCB1 (L-MDR1 cells) in comparison to the respective parental cell line (LLC-PK1). L-MDR1 cells were kindly provided by A. H. Schinkel (The Netherlands Cancer Institute, Division of Experimental Therapy, Amsterdam, The Netherlands). The cells were cultured under standard cell culture conditions with medium M199 supplemented with 10% FCS, 2 mM glutamine, 100 U/mL penicillin, and 100 µg/mL streptomycin sulfate. The culture medium for L-MDR1 was supplemented with 0.64 µM vincristine to maintain P-gp/ABCB1 expression. One day before using the cells in the assays, both cell lines were fed with vincristine-free culture medium.
# [4] = in vivo; settings: female, mouse, plasma, iv, 0.5 mg/kg; for level at 6 h / level at 22 h: NSG (NOD.Cg-Prkdc^scid Il2rg^tm1Wjl/SzJ), plasma actinomycin D concentration, incurred sample reanalysis table
# Protocol: as §2, §3
# [5] = Stability in microdialysis buffer and in solution (assay validation); assay type: physicochemical; settings: for 6-month stability in solution at 4°C, accuracy: ACN/H2O (1/1) + 0.1% FA solutions, 6 months; for 6-month stability in solution at 4°C, accuracy / 2 days buffer stability at RT, accuracy: N = 3; for 2 days buffer stability at RT, accuracy: microdialysate buffer (1% BSA Ringer)
# Protocol: Plasma calibration samples were prepared by spiking blank plasma (75 µL) with 25 µL of the calibration sub-solution, yielding plasma concentrations of 0.05, 0.2, 0.5, 1, 3, 10, 30, and 100 ng/mL. Plasma QC samples were prepared accordingly at concentrations of 0.05, 0.15, 3, and 60 ng/mL. Brain tissue homogenate calibration samples were prepared by spiking brain tissue homogenate (75 µL), which was prepared at 100 mg tissue per mL of 5% aqueous ACN containing 0.5% Triton X, with 25 µL of the calibration sub-solution, yielding concentrations corresponding to 0.5, 2, 5, 10, 30, 100, 300, and 1000 ng/g. Brain tissue homogenate QC samples were prepared accordingly, at corresponding concentrations of 0.5, 1.5, 30, and 600 ng/g. Solutions were kept at 4 °C for up to 6 months.
# [6] = system: L-MDR1 cells (over-expressing human P-gp/ABCB1); settings: ratio of IC50 in P-gp over-expressing versus parental cells
# Protocol: as §1
# The assays were performed in quadruplicate, as described previously, using ten concentrations of actinomycin D from 0.0005–10 µM in octuplets.
# Calibration curves were determined with 1/x^2 weighted linear regression using peak area ratios of the analyte to IS. This calculation was performed using the software TargetLynx V4.2 (Waters, Milford, MA, USA). Plasma pharmacokinetics were determined with the software Kinetica (v 5.0; Thermo Fisher Scientific, Waltham, MA, USA). Standard calculations were performed using Microsoft Office Excel 2010 ([…]). Concentration–response curves and IC50 values were calculated by GraphPad Prism version 9.0.0 (GraphPad Software Inc., La Jolla, CA, USA) according to a sigmoid Emax model.
# [7] = rapid equilibrium dialysis, 12 h, 37 °C
# Protocol: To determine the previously unknown unbound fraction of actinomycin D in plasma and brain tissue homogenate, we performed rapid equilibrium dialysis (RED) in duplicate. For this, samples were spiked with drug solutions that were prepared in plasma or brain tissue homogenate to obtain minimally diluted samples (30 ng/mL for plasma and 30 ng/g for brain tissue). The free actinomycin D tissue fraction was also quantified in a pooled sample of brain tissue homogenates from the three mice euthanized 2 h after dosing. Determinations were performed on a RED apparatus (ThermoFisher Scientific, Waltham, MA, USA) according to the manufacturer´s instructions under gentle agitation for 12 h at 37 °C.
# [8] = N = 3, UPLC-MS/MS; for Freeze-and-thaw stability, accuracy: plasma, three freeze-and-thaw cycles separated by at least 24 h
# Protocol: Accuracy was calculated as the percentage of the ratio of the mean determined concentration in individual analytical runs and the nominal value. Precision was expressed in percent and is defined as the coefficient of variation of the measured sample concentrations at each QC level. Three validation runs were analyzed, each containing eight calibration samples in duplicate determination and four QC samples at LLOQ, and low, mid, and high QC concentration in six replicates. Selectivity was evaluated using blank plasma samples from six naïve mice and brain tissue homogenates from two mice. Extraction recovery was calculated from peak areas after extraction from the QC samples divided by the respective peak areas obtained from blank plasma spiked after extraction. Matrix effects were evaluated by comparison of the peak areas of the blank plasma samples spiked after extraction with the respective peak areas of matrix-free UPLC solvent samples spiked with the identical amount. Stability of the analyte was tested in three freeze-and-thaw cycles separated by at least 24 h, in plasma samples stored for 1 month at −25 °C, in microdialysate stored at room temperature for 2 d, and in extracts left in the autosampler for 24 h. Additionally, an incurred sample reanalysis was performed for all plasma samples with sufficient volume for reanalysis.
# P-gp/ABCB1, sequence (P08183 whole entry): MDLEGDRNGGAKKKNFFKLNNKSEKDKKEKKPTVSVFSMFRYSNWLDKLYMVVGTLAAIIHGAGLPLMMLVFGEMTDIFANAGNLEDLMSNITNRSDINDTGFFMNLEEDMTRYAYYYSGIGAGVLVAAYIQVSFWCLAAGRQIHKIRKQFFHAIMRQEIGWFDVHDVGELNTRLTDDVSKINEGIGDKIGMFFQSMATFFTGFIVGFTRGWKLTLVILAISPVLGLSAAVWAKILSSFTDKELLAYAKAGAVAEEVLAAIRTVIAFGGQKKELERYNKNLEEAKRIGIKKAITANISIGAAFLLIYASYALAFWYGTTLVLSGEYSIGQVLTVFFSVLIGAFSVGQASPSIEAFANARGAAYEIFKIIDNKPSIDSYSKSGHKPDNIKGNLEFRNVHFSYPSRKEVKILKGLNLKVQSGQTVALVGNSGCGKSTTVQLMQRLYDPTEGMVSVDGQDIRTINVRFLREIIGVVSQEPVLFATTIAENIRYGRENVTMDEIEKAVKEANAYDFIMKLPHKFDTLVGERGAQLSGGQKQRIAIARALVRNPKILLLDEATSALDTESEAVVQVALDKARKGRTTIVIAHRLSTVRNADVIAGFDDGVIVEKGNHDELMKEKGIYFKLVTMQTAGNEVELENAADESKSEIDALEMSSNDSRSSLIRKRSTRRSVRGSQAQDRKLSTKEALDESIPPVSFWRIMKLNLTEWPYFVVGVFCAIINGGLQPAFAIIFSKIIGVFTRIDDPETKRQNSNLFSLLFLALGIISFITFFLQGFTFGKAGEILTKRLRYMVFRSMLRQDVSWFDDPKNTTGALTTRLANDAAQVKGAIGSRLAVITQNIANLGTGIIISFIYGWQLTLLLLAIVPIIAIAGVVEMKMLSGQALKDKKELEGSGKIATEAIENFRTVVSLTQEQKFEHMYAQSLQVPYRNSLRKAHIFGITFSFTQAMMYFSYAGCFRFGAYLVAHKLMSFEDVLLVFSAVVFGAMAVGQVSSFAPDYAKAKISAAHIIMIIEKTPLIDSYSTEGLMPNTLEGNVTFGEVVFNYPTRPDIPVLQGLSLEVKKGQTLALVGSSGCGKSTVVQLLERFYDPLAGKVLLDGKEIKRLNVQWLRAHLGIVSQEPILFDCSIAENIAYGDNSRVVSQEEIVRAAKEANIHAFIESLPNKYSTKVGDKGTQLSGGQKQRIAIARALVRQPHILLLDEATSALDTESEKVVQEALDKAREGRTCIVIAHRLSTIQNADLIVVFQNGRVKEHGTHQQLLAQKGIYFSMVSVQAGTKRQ
smiles,measurement,setting,value
"Cc1c2oc3c(C)ccc(C(=O)N[C@@H]4C(=O)N[C@H](C(C)C)C(=O)N5CCC[C@H]5C(=O)N(C)CC(=O)N(C)[C@@H](C(C)C)C(=O)O[C@@H]4C)c3nc-2c(C(=O)N[C@@H]2C(=O)N[C@H](C(C)C)C(=O)N3CCC[C@H]3C(=O)N(C)CC(=O)N(C)[C@@H](C(C)C)C(=O)O[C@@H]2C)c(N)c1=O [actinomycin D, Actinomycin D] (I: T[dV]P[Sar][NMeV] / II: T[dV]P[Sar][NMeV]; ester I:1-I:C, II:1-II:C; linker I:N-II:N via Actinocin(9to1))",non-specific binding to microdialysis equipment,[1],substantially adhered
same,Cmax,[2]; mouse 1,22.6 ng/mL
same,Cmax,[2]; mouse 2,14.6 ng/mL
same,Cmax,[2]; mouse 3,10.3 ng/mL
same,t1/2 (half-life),[2]; mouse 1,5.07 h
same,t1/2 (half-life),[2]; mouse 2,6.14 h
same,t1/2 (half-life),[2]; mouse 3,6.90 h
same,AUC (extrapolated to infinity),[2]; mouse 1,171 ng·h/mL
same,AUC (extrapolated to infinity),[2]; mouse 2,111 ng·h/mL
same,AUC (extrapolated to infinity),[2]; mouse 3,101 ng·h/mL
same,Cl (clearance),[2]; mouse 1,1.22 mL/min
same,Vss (volume of distribution),[2]; mouse 1,0.53 L
same,Cl (clearance),[2]; mouse 2,1.87 mL/min
same,Vss (volume of distribution),[2]; mouse 2,0.98 L
same,Cl (clearance),[2]; mouse 3,2.06 mL/min
same,Vss (volume of distribution),[2]; mouse 3,1.23 L
same,accumulation in P-gp over-expressing cell line versus parental cell line,[3],lower accumulation
same,level at 6 h,"[4]; incurred reanalysis, mouse # 6, sampling 6 h",1.17 ng/mL
same,level at 22 h,"[4]; incurred reanalysis, mouse # 6, sampling 22 h",1.16 ng/mL
same,level at 6 h,"[4]; incurred reanalysis, mouse # 7, sampling 6 h",5.23 ng/mL
same,level at 22 h,"[4]; incurred reanalysis, mouse # 7, sampling 22 h",5.17 ng/mL
same,level at 6 h,"[4]; original analysis, mouse # 6, sampling 6 h",1.31 ng/mL
same,level at 22 h,"[4]; original analysis, mouse # 6, sampling 22 h",1.36 ng/mL
same,level at 6 h,"[4]; original analysis, mouse # 7, sampling 6 h",5.51 ng/mL
same,level at 22 h,"[4]; original analysis, mouse # 7, sampling 22 h",4.48 ng/mL
same,AUC(0-inf),[4]; NSG,128 ± 31 ng·h/mL
same,Cmax,[4]; NSG,15.8 ± 5.1 ng/mL
same,Vd,[4]; NSG,1.1 ± 0.35 L
same,half-life,[4]; NSG,6.04 ± 0.75 h
same,stability in the microdialysis buffer,"[5]; 1% BSA in Ringer solution, 2 d, room temperature",stable
same,"6-month stability in solution at 4°C, accuracy",[5]; High QC 60.0 ng/mL,87.2%
same,"6-month stability in solution at 4°C, accuracy",[5]; Low QC 0.150 ng/mL,88.3%
same,"6-month stability in solution at 4°C, accuracy",[5]; Medium QC 3.00 ng/mL,86.4%
same,"2 days buffer stability at RT, accuracy","[5]; room temperature, High QC 60.0 ng/mL",104.7%
same,"2 days buffer stability at RT, accuracy","[5]; room temperature, Low QC 0.150 ng/mL",108.7%
same,"2 days buffer stability at RT, accuracy","[5]; room temperature, Medium QC 3.00 ng/mL",113.5%
same,time stable in solution,[5]; stored solutions kept at 4 °C,at least 6 months
same,difference of IC50 L-MDR1 versus LLC-PK1,[6],> 100 fold
same,free fraction in spiked brain tissue homogenate,"[7]; minimally diluted homogenate spiked at 30 ng/g, duplicate, UPLC-MS/MS",3.4%
same,free fraction in brain tissue homogenate of dosed mice,"[7]; pooled homogenates of three mice 2 h after 0.5 mg/kg i.v., estimated from response values below LLOQ",< 3%
same,"1-month plasma stability at -25 °C, accuracy",[8]; High QC 60.0 ng/mL,100.7%
same,"1-month plasma stability at -25 °C, accuracy",[8]; Low QC 0.150 ng/mL,95.6%
same,"1-month plasma stability at -25 °C, accuracy",[8]; Medium QC 3.00 ng/mL,98.3%
same,"Freeze-and-thaw stability, accuracy",[8]; High QC 60.0 ng/mL,87.6%
same,"Freeze-and-thaw stability, accuracy",[8]; Low QC 0.150 ng/mL,93.6%
same,"Freeze-and-thaw stability, accuracy",[8]; Medium QC 3.00 ng/mL,92.0%
